The source of these data is US20080242600A1, “Backbone Cyclized Melanocortin Stimulating Hormone (Alpha Msh) Analogs” (priority 2005, published 2008).

Each structure is given as a SMILES string. “Also recorded” adds a separate entry of the source. *1 amine or outer side, *2 acyl side, *3 side chain or, on linkers, in order; H or OH if unused. Where a SMILES comes first, the peptide text is derived from it. Bridges are numbered along the chain shown (N, C = ends). [ ]: non-standard residue; d: D form. NGly(3-aminopropyl) = O=C(CN(CCCN[*:3])[*:1])[*:2]; N(2-Aminoethyl)Gly = O=C(CN(CCN[*:3])[*:1])[*:2]; Heptanedioyl = O=C(CCCCCC(=O)[*:2])[*:1]; Adipoyl = O=C(CCCCC(=O)[*:2])[*:1]; Glutaryl = O=C(CCCC(=O)[*:2])[*:1]; Suc = O=C(CCC(=O)[*:2])[*:1]; Nlys = NCCCCNCC(=O)O

Data set [1] addresses T1, MC4R (Homo sapiens, UniProt P32245).
T1 construct: expressed in transfected cells; host or cells: CHO cells
In words: Receptor binding assay (IC50 on the MC4R). From the text:
The analogs can be further tested in vitro for their influence on cyclic adenosine monophosphate (cAMP) levels. Intestinal permeability and metabolic stability of the analogs can be tested in vivo. The analogs can be further tested in vivo in preclinical models in order to identify the optimal mode of administration and proper dose, and to verify the safety and the efficacy of these new potential therapeutic drugs.
Transfected CHO cells are washed with binding buffer 8 and distributed into 96-well plates (approximately 40,000 cells/well). […] NDP-α-MSH and appropriate concentrations of an unlabelled ligand. After incubation, the cells are washed with 0.2 ml of ice-cold binding buffer and detached from the plates with 0.2 ml of 0.1 N NaOH. Radioactivity is counted (Wallac, Wizard automatic gamma counter) and data analyzed with a software package for radioligand binding analyses (Wan System, Umea, Sweden) by fitting it to formulas derived from the law of mass-action by the method generally referred to as computer modeling. The binding assays are performed in duplicate wells.

The subject of a further data set is ICR:Hsd (CD-1) male mice. Description: Effect of orally administered BBC-1 on food consumption in normal mice. The class given is in vivo. On the procedure:
ICR:Hsd (CD-1) male mice, 7-8 weeks old, were raised in separate cages and maintained at 23±1° C. on a 12-hr light, 12-hr dark cycle (0700-1900 hr light). Mice were allowed ad libitum access to water and standard chow pellets. Upon arrival mice were allowed to acclimate for 1 week. Following fasting for 16 hours, the animals (n=8) were subjected to a single oral gavage (PO, 5 ml/kg) of BBC1 (100 μg/ml, 1000 μg/ml) or vehicle (water). Immediately after administration, fixed food doses were added and re-weighed after 1, 2, 3, 4, 5, 8 and 24 hours.

Data set [2] is described as follows: Assessment of intestinal metabolic stability in brush border membrane vesicles. In kind it is in vitro ADME. The conditions noted are these: rat intestinal brush border membranes. As to the method: Brush-border membrane vesicles (BBMVs) were prepared from combined duodenum, jejunum, and upper ileum by a Ca++precipitation method (PEERCE). The intestines of 5 male Wistar rats, 200-250 g, were rinsed with ice cold 0.9% Nacl and freed of mucos, the mucosa was scraped off the luminal surface with glass slides and put immediately into buffer containing […] Kcl and 10 mM Tris-HCl (pH 7.5, 4° C.) and the mixture homogenated by Ploytron (Polytron PT 1200, Kinematica AG, Switzerland). CaCl was added to a final concentration of 10 mM. The homogenate was left shaking for 30 min at 4° C. and afterwards centrifuged at 10,000 g for 10 min (centrifuge) the supernatant was then centrifuged at 48,000 g for 30 min an additional two purification steps were undertaken by suspending the pellet in 300 mM mannitol and 10 mM Hepes/Tris (pH 7.5) and centrifuge 24,000 g/hr. Purification of brush border membranes was assayed using the brush border membrane enzyme markers GGT, LAP and alkaline phosphatase. During the course of these studies, enrichment in brush border membrane enzymes varied between 13- and 18-fold.

In data set [3] the target is T1, MC4R. In words: Determination of receptor activation (cAMP accumulation assay). In kind it is cell-based. As to the method: cAMP Accumulation Assays: 48 h after transfection, CHO cells are washed once with PBS and then detached from the plate with PBS containing 0.02% EDTA (Sigma). The detached cells are harvested by centrifugation and resuspended in Hanks' balanced salt solution (Invitrogen) containing 0.5 mM IBMX, 2 mM HEPES, pH 7.5 (IBMX buffer). After incubation at 37° C. for 15 min to allow for IBMX uptake, 0.4 ml of cell suspension (5×10^5 cells/ml) is added to 0.1 ml of IBMX buffer containing various concentrations of agonists or 10 μM forskolin. The cells are subsequently incubated at 37° C. for 15 min to allow for cAMP accumulation. The activity is terminated by adding 0.5 ml of 5% trichloroacetic acid, and cAMP released from lysed cells is assayed by the cAMP ^125I scintillation proximity assay system (Amersham Biosciences).
EC50 values are calculated with a 95% confidence interval using GraphPad Prism software (using nonlinear regression analysis fitted with a sigmoidal dose-response curve with variable slope).
On the technique in general: cAMP levels reflect the balance of adenylyl cyclase and phosphodiesterase activity.

T1 sequence (P32245 whole entry, species assumed): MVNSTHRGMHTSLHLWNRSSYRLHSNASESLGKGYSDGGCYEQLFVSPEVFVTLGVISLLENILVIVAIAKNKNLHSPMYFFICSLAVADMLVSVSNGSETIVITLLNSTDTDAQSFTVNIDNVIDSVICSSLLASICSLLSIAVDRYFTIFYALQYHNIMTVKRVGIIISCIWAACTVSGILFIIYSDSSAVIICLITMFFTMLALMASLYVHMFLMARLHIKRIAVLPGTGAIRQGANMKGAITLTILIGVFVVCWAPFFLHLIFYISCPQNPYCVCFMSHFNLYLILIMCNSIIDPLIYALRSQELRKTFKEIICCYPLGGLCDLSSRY

`N=C(N)NCCC[C@@H]1NC(=O)[C@@H](Cc2ccccc2)NC(=O)[C@H](Cc2ccccc2)NC(=O)CCCCC(=O)NCCCN(CC(N)=O)C(=O)[C@H](Cc2c[nH]c3ccccc23)NC1=O` [BBC15] (F[dF]RW[NGly(3-aminopropyl)]-NH2; linker N-5 via Adipoyl): the IC50 (usually the concentration at which inhibition is half-maximal) on MC4R [1] worked out at 60 nM.

At MC4R [1], `N=C(N)NCCC[C@@H]1NC(=O)[C@@H](Cc2ccccc2)NC(=O)[C@H](Cc2ccccc2)NC(=O)CCCC(=O)NCCCCN(CC(N)=O)C(=O)[C@H](Cc2c[nH]c3ccccc23)NC1=O` [BBC12] (F[dF]RW[Nlys]-NH2; linker N-5 via Glutaryl) registered an IC50 of 100 nM. On to `N=C(N)NCCC[C@@H]1NC(=O)[C@@H](Cc2ccccc2)NC(=O)[C@H](Cc2ccccc2)NC(=O)CCC(=O)NCCCN(CC(N)=O)C(=O)[C@H](Cc2c[nH]c3ccccc23)NC1=O` [BBC8] (F[dF]RW[NGly(3-aminopropyl)]-NH2; linker N-5 via Suc), for which the IC50 at MC4R [1] stood at 60 nM. Consider `N=C(N)NCCC[C@@H]1NC(=O)[C@@H](Cc2ccccc2)NC(=O)[C@H](Cc2ccccc2)NC(=O)CCCCCC(=O)NCCCN(CC(N)=O)C(=O)[C@H](Cc2c[nH]c3ccccc23)NC1=O` [BBC7] (F[dF]RW[NGly(3-aminopropyl)]-NH2; linker N-5 via Heptanedioyl), for which the half-maximal inhibitory concentration (IC50) at MC4R [1] amounted to 100 nM. Still for that read-out and setting: with `N=C(N)NCCC[C@@H]1NC(=O)[C@@H](Cc2ccccc2)NC(=O)[C@H](Cc2ccccc2)NC(=O)CCCCCC(=O)NCCN(CC(N)=O)C(=O)[C@H](Cc2c[nH]c3ccccc23)NC1=O` [BBC9] (F[dF]RW[N(2-Aminoethyl)Gly]-NH2; linker N-5 via Heptanedioyl) the figure was 100 nM; with `N=C(N)NCCC[C@@H]1NC(=O)[C@@H](Cc2ccccc2)NC(=O)[C@H](Cc2ccccc2)NC(=O)CCCCC(=O)NCCCCN(CC(N)=O)C(=O)[C@H](Cc2c[nH]c3ccccc23)NC1=O` [BBC13] (F[dF]RW[Nlys]-NH2; linker N-5 via Adipoyl), 100 nM.

Turning to `N=C(N)NCCC[C@@H]1NC(=O)[C@@H](Cc2ccccc2)NC(=O)[C@H](Cc2ccccc2)NC(=O)CCCCC(=O)NCCN(CC(N)=O)C(=O)[C@H](Cc2c[nH]c3ccccc23)NC1=O` [BBC10] (F[dF]RW[N(2-Aminoethyl)Gly]-NH2; linker N-5 via Adipoyl), the concentration for half-maximal inhibition (IC50) at MC4R [1] came to 120 nM. This IC50 and that of the molecule before are within 1.5-fold of each other. Same read-out and setting: with `N=C(N)NCCC[C@@H]1NC(=O)[C@@H](Cc2ccccc2)NC(=O)[C@H](Cc2ccccc2)NC(=O)CCCC(=O)NCCCN(CC(N)=O)C(=O)[C@H](Cc2c[nH]c3ccccc23)NC1=O` [BBC6] (F[dF]RW[NGly(3-aminopropyl)]-NH2; linker N-5 via Glutaryl) the figure was 110 nM. Regarding `N=C(N)NCCC[C@@H]1NC(=O)[C@@H](Cc2ccccc2)NC(=O)[C@H](Cc2ccccc2)NC(=O)CCC(=O)NCCN(CC(N)=O)C(=O)[C@H](Cc2c[nH]c3ccccc23)NC1=O` [BBC1] (F[dF]RW[N(2-Aminoethyl)Gly]-NH2; linker N-5 via Suc), the “food consumption (in words)” value with ICR:Hsd (CD-1) male mice (single oral administration, 24 hours) is “decreased food consumption”. The “reduction of food consumption” value with ICR:Hsd (CD-1) male mice (single oral administration, over a period of 24 hr) is reported as about 40%. Besides, the “clinical signs post administration” value in the data set on ICR:Hsd (CD-1) male mice (single oral gavage, following 24 hours) was “did not show any special clinical signs”. In addition, in data set [2], the intestinal metabolic stability result is “high and enzymatically stable”. The IC50 on MC4R [1] was 90 nM. Moreover, on MC4R [3], the “MC4R functionality and selectivity” value is “highly functional and selective; also recorded: specific activation of MC4R”.
